Measurements as given in PMC5084024, “The Identification of Biochanin A as a Potent and Selective β-Site App-Cleaving Enzyme 1 (Bace1) Inhibitor” (Nutrients, 2016).

Molecular target: T1, BACE1 (β-site APP-cleaving enzyme 1) (Homo sapiens, UniProt P56817)
T1 construct: human recombinant BACE1, baculovirus-expressed
Assay: FRET enzyme assay with recombinant BACE1; Dixon and Lineweaver-Burk kinetics (Ki […])
Assay type: biochemical

T1 sequence (P56817 46-457): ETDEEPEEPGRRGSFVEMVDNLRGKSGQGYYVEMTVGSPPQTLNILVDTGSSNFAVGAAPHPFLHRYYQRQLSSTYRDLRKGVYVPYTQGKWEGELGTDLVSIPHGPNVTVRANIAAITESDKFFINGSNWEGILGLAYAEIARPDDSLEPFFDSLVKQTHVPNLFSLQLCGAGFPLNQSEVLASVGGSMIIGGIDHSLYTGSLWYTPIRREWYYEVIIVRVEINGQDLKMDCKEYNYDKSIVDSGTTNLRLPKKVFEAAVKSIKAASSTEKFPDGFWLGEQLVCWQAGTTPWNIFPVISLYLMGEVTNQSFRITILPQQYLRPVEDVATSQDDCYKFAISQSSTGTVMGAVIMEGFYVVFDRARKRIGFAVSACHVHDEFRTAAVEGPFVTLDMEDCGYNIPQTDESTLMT

`COc1ccc(-c2coc3cc(O)cc(O)c3c2=O)cc1` [Biochanin A, 5,7-dihydroxy-3-(4-methoxyphenyl)chromen-4-one] showed an IC50 of 28 µM.
